In patent publication US11046710B2, “Sulfonamide compounds” (DAIICHI SANKYO COMPANY, LIMITED, priority 2016, dated 2021):

Target: human TNAP (Homo sapiens (Human), UniProt P05186)
Experiment: Inhibitory test of TNAP activity (pNPP substrate, p-nitrophenol production)
Type: biochemical
Conditions: human TNAP from transfected COS1 culture supernatant, 60 minutes at room temperature
Method: COS1 cells (DS Pharma Biomedical Co., Ltd.) were transfected with human TNAP (OriGene Technologies, Inc.) using Lipofectamine LTX & Plus reagent (Invitrogen Corp.). On the next day, the medium was replaced with a fresh medium, and the cells were cultured in an incubator for 3 days. After 3 days, the culture supernatant was collected and concentrated by centrifugation at 5000 G for 30 minutes using Amicon 14, 10^4 cut (Merck Millipore). The concentrated culture supernatant was dialyzed against 5 L of 50 mM Tris/200 mM NaCl/1 mM MgCl2/20 μM ZnCl2 twice and used as an enzyme source (enzyme solution). The substrate pNPP (ProteoChem Inc.) was adjusted to 3.1 mM with Milli-Q water, and a solution of each test compound dissolved in dimethyl sulfoxide (DMSO; Wako Pure Chemical Industries, Ltd.) by 6 serial dilutions at a 5-fold common ratio from 100 μM, or DMSO was added thereto at a final concentration of 1% by volume. The enzyme solution adjusted to 2 μg/mL with an assay buffer (200 mM Tris/2 mM MgCl2/0.04 mM ZnCl2/0.01% Tween 20) was added in the same amount of the substrate solution and incubated at room temperature for 60 minutes. Then, the absorbance (ABS: 405 nm) was measured using a microplate reader (model plus 384, Molecular Devices, LLC), and the concentration of produced p-nitrophenol was calculated.

human TNAP, sequence (P05186 18-524): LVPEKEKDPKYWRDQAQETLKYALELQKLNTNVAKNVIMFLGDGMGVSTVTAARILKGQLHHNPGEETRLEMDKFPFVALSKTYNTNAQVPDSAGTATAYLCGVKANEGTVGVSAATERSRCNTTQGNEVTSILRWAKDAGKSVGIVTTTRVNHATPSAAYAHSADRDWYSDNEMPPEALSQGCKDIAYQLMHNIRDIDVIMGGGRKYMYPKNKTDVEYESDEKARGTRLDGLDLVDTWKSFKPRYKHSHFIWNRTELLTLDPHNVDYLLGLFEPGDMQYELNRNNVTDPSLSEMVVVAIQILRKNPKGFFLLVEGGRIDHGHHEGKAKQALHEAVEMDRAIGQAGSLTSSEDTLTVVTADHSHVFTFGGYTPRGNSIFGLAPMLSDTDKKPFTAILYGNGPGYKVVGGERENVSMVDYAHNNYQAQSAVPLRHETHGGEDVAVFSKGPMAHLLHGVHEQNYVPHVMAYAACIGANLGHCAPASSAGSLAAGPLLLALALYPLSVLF

SMILES | IC50 [nM]
O=C1COCC2COc3ncc(NS(=O)(=O)c4cc(Cl)ccc4OC(F)(F)F)cc3CN12 (centres unmarked) [Example 63] | 1.4
COc1ccc(Cl)cc1S(=O)(=O)Nc1cnc2c(c1)C(=O)N1C[C@@H](OC)C[C@@H]1CO2 [Example 46, 5-chloro-2-methoxy-N-[(8S,9aR)-8-methoxy-5-oxo-8,9,9a,10-tetrahydro-5H,7H-pyrido[3,2-f]pyrrolo[2,1-c][1,4]oxazepin-3-yl]benzenesulfonamide] | 0.5
O=C1[C@@H](O)C[C@H]2COc3ncc(NS(=O)(=O)c4cc(Cl)ccc4OC(F)(F)F)cc3CN12 [Example 56, 5-chloro-N-[(8S,9aS)-8-hydroxy-7-oxo-8,9,9a,10-tetrahydro-5H,7H-pyrido[3,2-f]pyrrolo[2,1-c][1,4]oxazepin-3-yl]-2-(trifluoromethoxy)benzenesulfonamide] | 1.4
COc1ccc(Cl)cc1S(=O)(=O)Nc1cnc2c(c1)-c1nccn1CCO2 [Example 6, 5-chloro-N-(5,6-dihydroimidazo[1,2-d]pyrido[3,2-f][1,4]oxazepin-10-yl)-2-methoxybenzenesulfonamide] | 5.9
CCOc1ccc(F)cc1S(=O)(=O)Nc1cnc2c(c1)-c1ccnn1[C@H](C)CO2 [Example 20, 2-ethoxy-5-fluoro-N-[(5R)-5-methyl-5,6-dihydropyrazolo[1,5-d]pyrido[3,2-f][1,4]oxazepin-10-yl]benzenesulfonamide] | 4.2
COc1ccc(Cl)cc1S(=O)(=O)Nc1cnc2c(c1)CN1C(=O)CCC[C@H]1CO2 [Example 59, 5-chloro-2-methoxy-N-[(10aS)-7-oxo-7,8,9,10,10a, 11-hexahydro-5H-dipyrido[2,1-c:3′,2′-f][1,4]oxazepin-3-yl]benzenesulfonamide] | 1.4
COc1ccc(Cl)cc1S(=O)(=O)Nc1cnc2c(c1)-c1ccnn1[C@@H](C)CO2 [Example 16, 5-chloro-2-methoxy-N-[(5S)-5-methyl-5,6-dihydropyrazolo[1,5-d]pyrido[3,2-f][1,4]oxazepin-10-yl]benzenesulfonamide] | 3.5
COc1ncc(Cl)cc1S(=O)(=O)Nc1cnc2c(c1)-c1ccnn1[C@@H](C)CO2 [Example 21, 5-chloro-2-methoxy-N-[(5S)-5-methyl-5,6-dihydropyrazolo[1,5-d]pyrido[3,2-f][1,4]oxazepin-10-yl]pyridine-3-sulfonamide] | 3
CC(=O)O[C@H]1C[C@@H]2COc3ncc(NS(=O)(=O)c4cc(Cl)ccc4OC(F)(F)F)cc3C(=O)N2C1 [Example 47, (8S,9aR)-3-({[5-chloro-2-(trifluoromethoxy)phenyl]sulfonyl}amino)-5-oxo-8,9,9a,10-tetrahydro-5H,7H-pyrido[3,2-f]pyrrolo[2,1-c][1,4]oxazepin-8-yl acetate] | 1.5
COc1ccc(Cl)cc1S(=O)(=O)Nc1cnc2c(c1)C(=O)N1CC(F)(F)C[C@@H]1CO2 [Example 45, 5-chloro-N-[(9aR)-8,8-difluoro-5-oxo-8,9,9a,10-tetrahydro-5H,7H-pyrido[3,2-f]pyrrolo[2,1-c][1,4]oxazepin-3-yl]-2-methoxybenzenesulfonamide] | 2
COc1ccc(Cl)cc1S(=O)(=O)Nc1cnc2c(c1)CN1C(=O)CN(C)C[C@H]1CO2 [Example 64, 5-chloro-2-methoxy-N-[(10aS)-9-methyl-7-oxo-7,8,9,10,10a, 11-hexahydro-5H-pyrazino[2,1-c]pyrido[3,2-f][1,4]oxazepin-3-yl]benzenesulfonamide] | 1.8
COc1ccc(F)cc1S(=O)(=O)Nc1cnc2c(c1)C(=O)N1C[C@@H](O)C[C@@H]1CO2 [Example 31, 5-fluoro-N-[(8S,9aR)-8-hydroxy-5-oxo-8,9,9a,10-tetrahydro-5H,7H-pyrido[3,2-f]pyrrolo[2,1-c][1,4]oxazepin-3-yl]-2-methoxybenzenesulfonamide] | 1.2
CCOc1ccc(F)cc1S(=O)(=O)Nc1cnc2c(c1)CN1C(=O)COC[C@H]1CO2 [Example 61, 2-ethoxy-5-fluoro-N-[(10aS)-7-oxo-7,8,10a,11-tetrahydro-5H,10H-[1,4]oxazino[3,4-c]pyrido[3,2-f][1,4]oxazepin-3-yl]benzenesulfonamide] | 0.6
COc1ccc(Cl)cc1S(=O)(=O)Nc1cnc2c(c1)CN1C(=O)CC[C@H]1CO2 [Example 52, 5-chloro-2-methoxy-N-[(9aS)-7-oxo-8,9,9a,10-tetrahydro-5H,7H-pyrido[3,2-f]pyrrolo[2,1-c][1,4]oxazepin-3-yl]benzenesulfonamide] | 2.2
CCOc1ncc(Cl)cc1S(=O)(=O)Nc1cnc2c(c1)-c1ccnn1CCO2 [Example 13, 5-chloro-N-(5,6-dihydropyrazolo[1,5-d]pyrido[3,2-f][1,4]oxazepin-10-yl)-2-ethoxypyridine-3-sulfonamide] | 5.1
COc1ccc(Cl)cc1S(=O)(=O)Nc1cnc2c(c1)CN1C(=O)OC[C@H]1CO2 [Example 58, 5-chloro-2-methoxy-N-[(9aR)-7-oxo-9a,10-dihydro-5H, 9H-[1,3]oxazolo[4,3-c]pyrido[3,2-f][1,4]oxazepin-3-yl]benzenesulfonamide] | 3.8
COc1ccc(Cl)cc1S(=O)(=O)Nc1cnc2c(c1)C(=O)N1CC[C@H](O)[C@@H]1CO2 [Example 41, 5-chloro-N-[(9S,9aS)-9-hydroxy-5-oxo-8,9,9a,10-tetrahydro-5H,7H-pyrido[3,2-f]pyrrolo[2,1-c][1,4]oxazepin-3-yl]-2-methoxybenzenesulfonamide] | 0.4
COc1ncc(Cl)cc1S(=O)(=O)Nc1cnc2c(c1)-c1ccnn1CCO2 [Example 12, 5-chloro-N-(5,6-dihydropyrazolo[1,5-d]pyrido[3,2-f][1,4]oxazepin-10-yl)-2-methoxypyridine-3-sulfonamide] | 8.5
COc1ccc(Cl)cc1S(=O)(=O)Nc1cnc2c(c1)C(=O)N1C[C@@H](F)C[C@@H]1CO2 [Example 44, 5-chloro-N-[(8S,9aR)-8-fluoro-5-oxo-8,9,9a,10-tetrahydro-5H,7H-pyrido[3,2-f]pyrrolo[2,1-c][1,4]oxazepin-3-yl]-2-methoxybenzenesulfonamide] | 0.8
COc1ccc(Cl)cc1S(=O)(=O)Nc1cnc2c(c1)-c1ccnn1[C@H](C)CO2 [Example 17, 5-chloro-2-methoxy-N-[(5R)-5-methyl-5,6-dihydropyrazolo[1,5-d]pyrido[3,2-f][1,4]oxazepin-10-yl]benzenesulfonamide] | 6.9
O=C1c2cc(NS(=O)(=O)c3cc(F)ccc3OC(F)(F)F)cnc2OC[C@H]2C[C@H](O)CN12 [Example 34, 5-fluoro-N-[(8S,9aR)-8-hydroxy-5-oxo-8,9,9a,10-tetrahydro-5H,7H-pyrido[3,2-f]pyrrolo[2,1-c][1,4]oxazepin-3-yl]-2-(trifluoromethoxy)benzenesulfonamide] | 1.6
COc1ccc(Cl)cc1S(=O)(=O)Nc1cnc2c(c1)CN1C(=O)[C@H](O)C[C@H]1CO2 [Example 53, 5-chloro-N-[(8R,9aS)-8-hydroxy-7-oxo-8,9,9a,10-tetrahydro-5H,7H-pyrido[3,2-f]pyrrolo[2,1-c][1,4]oxazepin-3-yl]-2-methoxybenzenesulfonamide] | 4.3
O=C1c2cc(NS(=O)(=O)c3cc(Cl)ccc3OC(F)(F)F)cnc2OC[C@H]2[C@@H](O)CCN12 [Example 42, 5-chloro-N-[(9S,9aS)-9-hydroxy-5-oxo-8,9,9a,10-tetrahydro-5H,7H-pyrido[3,2-f]pyrrolo[2,1-c][1,4]oxazepin-3-yl]-2-(trifluoromethoxy)benzenesulfonamide] | 0.4
CNC(=O)O[C@H]1C[C@@H]2COc3ncc(NS(=O)(=O)c4cc(Cl)ccc4OC)cc3C(=O)N2C1 [Example 48, (8S,9aR)-3-{[(5-chloro-2-methoxyphenyl)sulfonyl]amino}-5-oxo-8,9,9a,10-tetrahydro-5H, 7H-pyrido[3,2-f]pyrrolo[2,1-c][1,4]oxazepin-8-yl methylcarbamate] | 0.6
COc1ccc(Cl)cc1S(=O)(=O)Nc1cnc2c(c1)CN1C(=O)COC[C@H]1CO2 [Example 60, 5-chloro-2-methoxy-N-[(10aS)-7-oxo-7,8,10a,11-tetrahydro-5H,10H-[1,4]oxazino[3,4-c]pyrido[3,2-f][1,4]oxazepin-3-yl]benzenesulfonamide] | 3.3
COc1ccc(Cl)cc1S(=O)(=O)Nc1cnc2c(c1)CN1C(=O)[C@@H](O)C[C@H]1CO2 [Example 54, 5-chloro-N-[(8S,9aS)-8-hydroxy-7-oxo-8,9,9a,10-tetrahydro-5H,7H-pyrido[3,2-f]pyrrolo[2,1-c][1,4]oxazepin-3-yl]-2-methoxybenzenesulfonamide] | 1.1
CCOc1ncc(F)cc1S(=O)(=O)Nc1cnc2c(c1)-c1ccnn1[C@@H](C)CO2 [Example 24, 2-ethoxy-5-fluoro-N-[(5S)-5-methyl-5,6-dihydropyrazolo[1,5-d]pyrido[3,2-f][1,4]oxazepin-10-yl]pyridine-3-sulfonamide] | 2.3
COc1ccc(Cl)cc1S(=O)(=O)Nc1cnc2c(c1)-c1ccnn1CCO2 [Example 7, 5-chloro-N-(5,6-dihydropyrazolo[1,5-d]pyrido[3,2-f][1,4]oxazepin-10-yl)-2-methoxybenzenesulfonamide] | 6.5
COCCOc1ccc(F)cc1S(=O)(=O)Nc1cnc2c(c1)-c1ccnn1CCO2 [Example 11, N-(5,6-dihydropyrazolo[1,5-d]pyrido[3,2-f][1,4]oxazepin-10-yl)-5-fluoro-2-(2-methoxyethoxy)benzenesulfonamide] | 12.6
